Patent US6759413B2, “Use of cox-2 inhibitors as gastroprokinetics” (SmithKline Beecham Corporation, priority 2000, dated 2004)

Key:
[1] = tested on: strips of canine antrum circular muscles; assay: Smooth muscle in vitro model of gastric propulsion: antral circular muscle strips, acetylcholine-induced contraction; type: cell-based; details: 10 μM test agent; ACh 1 μM; n=4-8 strips; organ bath, Krebs solution; FIG. 1
Protocol: Smooth Muscle in vitro Model of Gastric Propulsion
Agents which stimulate antral smooth muscle activity would be expected to enhance the rate of gastric emptying by propulsion of contents in the aboral direction. By contrast, fundic relaxation could lead to delayed emptying of the stomach as the upper stomach would serve as a reservoir for gastric contents.
The effects of test agents were evaluated on strips of canine antrum circular muscles (n=4-8 strips) suspended in organ baths bathed with Krebs solution. Following establishment of baseline tension, acetylcholine (“ACh”; 1 μM), indomethacin (10 μM), or 8-acetyl-3-(4-fluoro-phenyl)-2-(4-methanesulfonyl-phenyl)-imidazo[1,2-a]pyridine (“8-Acetyl- . . . ”; 10 μM) were applied and tension changes monitored and recorded on a polygraph.

[2] = tested on: strips of canine fundic circular muscle; assay: Smooth muscle in vitro model: fundic circular muscle strips, relaxation/tension change; type: cell-based; details: 10 μM; n=6-8 strips; FIG. 2
Beagle dogs = assay: Dog model of gastric emptying (solid phase, gamma camera); type: in vivo; details: po for three days, measured on fourth day after am dosing; cisapride 0.14 mg/kg TID, celecoxib 2.8 mg/kg BID, 8-acetyl compound 1.2 mg/kg BID; FIG. 3
Protocol: Activity In Vivo: Dog Model of Gastric Emptying
Beagle dogs were treated for three days with test agents (po administration): placebo BID; cisapride 0.14 mg/kg TID; celecoxib 2.8 mg/kg BID; or 8-acetyl-3-(4-fluoro-phenyl)-2-(4-methanesulfonyl-phenyl)-imidazo[1,2-a]pyridine 1.2 mg/kg BID. Solid phase gastric emptying was measured on the fourth day following am dosing. The same three animals were used for evaluation of each agent, thus reducing any interanimal variations.
Isotope-labeled solid food was fed to the dogs for their morning meal and animals were then placed under a gamma camera and scans performed over the 24 to 36 hours.

dogs = assay: Dog model of lower esophageal sphincter pressure (LESP); type: in vivo; details: 3 days treatment, day 4 am dose; cisapride 0.14 mg/kg TID, celecoxib 1.2 mg/kg BID; FIG. 4
Protocol: Activity In Vivo: Dog Model of Lower Esophageal Sphincter Pressure (LESP) Six adult dogs were instrumented with 14 French esophagostomy tubes. Animals were treated for 3 days with placebo (BID), cisapride (0.14 mg/kg TID) or celecoxib (1.2 mg/kg BID). On day 4 dogs received their am dose of test agent and water perfused manometry catheters were inserted through the esophagostomy tubes. Lower esophageal sphincter pressures (LESPs) were then monitored.

Rats = assay: Rat model of post operative ileus (methylene blue meal transit); type: in vivo; details: 3 mg/kg intravenous infusion; four hours post-gavage; eight rats; vehicle 49.3±1.3 cm; p<0.05
Protocol: Activity In Vivo: Rat Model of Post Operative Ileus
The selective COX-2 inhibitor 2-(4-ethoxy-phenyl)-3-(4-methanesulfonyl-phenyl)-pyrazolo[1,5-b]pyridazine was evaluated in a rat model of post-operative ileus. The methodology represents a modification of the procedure described by McGill et al, Gastroenterology 116: A1040 (1999).
Rats (fourteen) received 0.5 cc of skimmed milk with methylene blue by gavage. Either vehicle (six rats) or 2-(4-ethoxy-phenyl)-3-(4-methanesulfonyl-phenyl)-pyrazolo[1,5-b]pyridazine (eight rats) was then administered by intravenous infusion. Rats were sacrificed four hours post-gavage and the distance the methylene blue meal traversed the intestine measured. The pylorus was set at 0 cm. With vehicle treatment, the meal traversed 49.3±1.3 cm while with 2-(4-ethoxy-phenyl)-3-(4-methanesulfonyl-phenyl)-pyrazolo[1,5-b]pyridazine (3 mg/kg), the meal traversed 67.8±1.1 cm (p<0.05).

Row | Structure (SMILES) | sensitisation of antral circular muscle to acetylcholine-induced contractions [1] | relaxation / change in tension of fundic circular muscle [2] | rate of solid phase gastric emptying (Beagle dogs) | lower esophageal sphincter pressure (LESP) compared to placebo (dogs) | distance the methylene blue meal traversed the intestine (pylorus = 0 cm) (Rats) [cm]
1 | COc1ccc2c(c1)c(CC(=O)O)c(C)n2C(=O)c1ccc(Cl)cc1 [indomethacin] | enhanced acetylcholine-induced contractions | near complete relaxation |  |  | 
2 | CC(=O)c1cccn2c(-c3ccc(F)cc3)c(-c3ccc(S(C)(=O)=O)cc3)nc12 [8-acetyl-3-(4-fluoro-phenyl)-2-(4-methanesulfonyl-phenyl)-imidazo[1,2-a]pyridine] |  | only small changes in tension | increased the rate of gastric emptying |  | 
3 | COc1cc(N)c(Cl)cc1C(=O)NC1CCN(CCCOc2ccc(F)cc2)CC1OC (stereo not shown) [cisapride] |  |  | increased the rate of gastric emptying | increased LESP | 
4 | CCOc1ccc(-c2nn3ncccc3c2-c2ccc(S(C)(=O)=O)cc2)cc1 [2-(4-ethoxy-phenyl)-3-(4-methanesulfonyl-phenyl)-pyrazolo[1,5-b]pyridazine] |  |  |  |  | 67.8±1.1
